Experimental findings from patent US4888335A, “3-alkoxy-2-aminopropyl heterocyclic amines and their use as cardiovascular agents” (McNeilab, Inc., priority 1988, dated 1989) are described below.

Structures can show the parent of a compound that is named as a salt.

In test [1] the test system is Langendorff's isolated heart (coronary flow). Description: Langendorff isolated heart (increase in coronary flow). The following applies: tested at 30.0 to 0.01 micromolar. As for the experimental part:
In addition to their utility in the treatment of hypertension, the compounds of formula (I) are useful in the treatment of the symptoms of angina pectoris by virtue of their ability to dilate coronary arteries. Their activity was measured using the "Langendorff's isolated heart" preparation. This test has been described in "Pharmacological Experiments on Isolated Preparations", Staff of the Department of Pharmacology, University of Edinbourgh, 2nd Ed., Churchill Livingstone, N.Y., 1970, pp 112-119. The test compounds were administered at concentrations of 30.0, 10.0, 3.0, 1.0, 0.3, 0.1, 0.03 and 0.01 micromolar (10^-6 molar). The minimum concentration EC30) needed to elicit a 30% increase in coronary flow is shown in Table I for compounds of formula (I).

Test [2] concerns spontaneously hypertensive rats (mean arterial pressure). Description: Spontaneously Hypertensive Rat (SHR) test, fall in mean arterial pressure. The class given is in vivo. To be noted: active if fall >15 mm of Hg. Here is the method: The activity of compounds of formula (I) for the treatment of hypertension was determined using the Spontaneously Hypertensive Rat (SHR) test as described below. Spontaneously Hypertensive Rat Test In this test, the arterial pressure of adult spontaneously hypertensive rats (Charles River) is monitored directly via an aortic cannula. The SH rats are anesthetized with an inhalation anesthetic (ether). The left carotoid artery is isolated and cannulated. The tip of the cannula is advanced to the aorta and the cannula is exteriorized behind the neck at the level of the scapula. Animals are placed in individual cages, allowed to recover from the anesthetic and are kept unrestrained. The arterial cannula is connected to a pressure transducer which is attached to a recorder. The test compounds are administered to at least 3 rats at doses selected in the range of 0.1 to 100 mg/kg of body weight by i.p. or p.o. routes of administration. The arterial pressure and heart rate are monitored for a minimum of 24 hr. A test compound is considered to be active as an antihypertensive agent if the mean arterial pressure (MAP) indicates a fall (δMAP) of >15 mm of Hg. Each animal serves as its own control.

Regarding `CC(C)COCC(CN1c2ccccc2Sc2ccccc21)N1CCCC1` (centres unmarked) [Example 9, 10-[3-(2-Methylpropoxy)-2-(1-pyrrolidinyl)propyl]-10H-phenothiazine], the “Langendorff EC30 (minimum concentration needed to elicit a 30% increase in coronary flow)” value in test [1] is given as “.30 10^-6 M”. Besides, the entries for the “SHR δMAP (change in mean arterial pressure)” value in test [2] (10 mg/kg i.p.) and in test [2] (30 mg/kg p.o.) were -22 mm of Hg and -19 mm of Hg, respectively.
As for `C=C(C)COCC(CN1c2ccccc2C=Cc2ccccc21)N1CCCC1` (centres unmarked) [Example 10, 5-[3-(2-methyl-2-propenoxy)-2-(1-pyrrolidinyl)propyl]-5H-dibenz[b,f]azepine], in test [2] (30 mg/kg p.o.), the “SHR δMAP (change in mean arterial pressure)” value is on record as -25 mm of Hg.
In the case of `CC(C)COCC(CN1Cc2ccccc2CCc2ccccc21)N1CCCC1` (stereo not drawn) [Example 2b, 5,6,11,12-Tetrahydro-5-beta-[3-(2-methylpropoxy)-2-(1-pyrrolidinyl)propyl]dibenz[b,f]azocine Hydrate (5:1)], the “Langendorff EC30 (minimum concentration needed to elicit a 30% increase in coronary flow)” value in test [1] is reported as “.150 10^-6 M”. Further, the “SHR δMAP (change in mean arterial pressure)” value in test [2] (30 mg/kg p.o.) is given as -25 mm of Hg.
Take `CC(C)(C)COCC(CN1c2ccccc2C=Cc2ccccc21)N1CCCC1` (centres unmarked) [Example 6, 5-[3-(2,2 Dimethylpropxy)-2-(1-pyrrolidinyl)propyl]-5H-dibenz[b,f]azepine Hydrochloride]: in test [1], the “Langendorff EC30 (minimum concentration needed to elicit a 30% increase in coronary flow)” value is given as “.001 10^-6 M”. Also, the “SHR δMAP (change in mean arterial pressure)” value in test [2] (10 mg/kg i.p.) is reported as -27 mm of Hg.
Take `CC(C)(C)COCC(CN1Cc2ccccc2Cc2ccccc21)N1CCCC1.O=C(O)/C=C/C(=O)O` (centres unmarked) [Example 3c, 5,6-Dihydro-5-[3-(2,2-dimethylpropoxy)-2-(1-pyrrolidinyl)propyl]-11H-dibenz[b,e]azepine (E)-2-Butenedioate]: in test [1], the “Langendorff EC30 (minimum concentration needed to elicit a 30% increase in coronary flow)” value is listed as “.004 10^-6 M”. The “SHR δMAP (change in mean arterial pressure)” value in test [2] (10 mg/kg i.p.) is listed as -54 mm of Hg; in test [2] (30 mg/kg p.o.) it was -2 mm of Hg.
In the case of `CC(C)COCC(CN1Cc2ccccc2Cc2ccccc21)N1CCCC1` (centres unmarked) [Example 1, 5,6-Dihydro-5-[3-(2-methylpropoxy)-2-(1-pyrrolidinyl)-propyl]-11H -dibenz[b,e]azepine], in test [1], the “Langendorff EC30 (minimum concentration needed to elicit a 30% increase in coronary flow)” value is “.013 10^-6 M”. For the same molecule, the “SHR δMAP (change in mean arterial pressure)” value is reported as -37 mm of Hg in test [2] (10 mg/kg i.p.) and -65 mm of Hg in test [2] (30 mg/kg i.p.).
Consider `CC1(COCC(CN2c3ccccc3Oc3ccccc32)N2CCCC2)CCCCC1.Cl` (centres unmarked) [Example 7d, 10-[3-[(1-Methylcyclohexyl)methoxy]-2-(1-pyrrolidinyl)-propyl]-10H-phenoxazine Hydrochloride (1:1)], for which the “Langendorff EC30 (minimum concentration needed to elicit a 30% increase in coronary flow)” value in test [1] is reported as “.012 10^-6 M”. For the same molecule, the “SHR δMAP (change in mean arterial pressure)” value in test [2] (30 mg/kg p.o.) is listed as -24 mm of Hg.
For `CC(C)COCC(CN1c2ccccc2CCc2ccccc21)N1CCCC1` (centres unmarked) [Example 4, 10,11-dihydro-5-[3-(2-methylpropoxy)-2-(1-pyrrolidinyl)propyl]-5H-dibenz[b,f]azepine], the “Langendorff EC30 (minimum concentration needed to elicit a 30% increase in coronary flow)” value in test [1] is on record as “.011 10^-6 M”. Moreover, the “SHR δMAP (change in mean arterial pressure)” value in test [2] (10 mg/kg i.p.) is -65 mm of Hg.
Consider `CC1(COCC(CN2c3ccccc3C=Cc3ccccc32)N2CCCC2)CCCCC1` (centres unmarked) [Example 8, 5-[3-[(1-methylcyclohexyl)methoxy]-2-(1-pyrrolidinyl)propyl]-5H-dibenz[b,f]azepine], for which the “Langendorff EC30 (minimum concentration needed to elicit a 30% increase in coronary flow)” value in test [1] is reported as “.0037 10^-6 M”. In addition, in test [2] (30 mg/kg p.o.), the “SHR δMAP (change in mean arterial pressure)” value is recorded as -12 mm of Hg.
On to `CC(C)(C)COCC(CN1Cc2ccccc2Oc2ccccc21)N1CCCC1.O=C(O)/C=C/C(=O)O` (centres unmarked) [Example 5b, 10,11-Dihydro-10-[3-(2,2-dimethylpropoxy)-2-(1-pyrrolidinyl)propyl]dibenz[b,f][1,4]oxazepine (E)-2-Butenedioate], for which, in test [1], the “Langendorff EC30 (minimum concentration needed to elicit a 30% increase in coronary flow)” value is “.04 10^-6 M”. In addition, the “SHR δMAP (change in mean arterial pressure)” value is recorded as -70 mm of Hg in test [2] (10 mg/kg i.p.) and -20 mm of Hg in test [2] (30 mg/kg p.o.).
